Experimental data reported in patent publication US10253052B2, “HBED-bisphosphonates, radiometal conjugates and their use as theranostic agents” (Five Eleven Pharma Inc., priority 2015, dated 2019).

Assays:
[1] = In vivo biodistribution in mice; parameters: species or system normal CD-1 male mice; settings: iv
Method: Biodistribution experiments were performed by intravenously administering ^68Ga labeled 1a-h, 2, 3, BPAMD, and [^18F]NaF into normal, healthy male CD-1 mice (25-30 g). The injection activity was 20-30 μCi/animal. […] Organs of interest were harvested, weighed, and counts of radioactivity were measured by a gamma counter. The biodistribution of each sample was calculated as a percentage of the injected dose per gram of wet tissue weight (% ID/g). Tibia and femur bones were harvested and counted as bone samples.

[2] = In vitro binding to hydroxyapatite; settings: 20 mg hydroxyapatite in saline, 10 min at room temperature
Method: Hydroxyapatite (20 mg, Sigma-Aldrich, reagent grade powder) was incubated in isotonic saline (1 mL) for 24 h. Subsequently, either ^68Ga labeled 1a-h, 2, 3, BPAMD, or [^18F]NaF (1 μCi) was added to the hydroxyapatite suspension. After vortexing for 10 seconds, the suspension was incubated for 10 min at room temperature. The samples were then centrifuged at 10,000 rpm for 3 min and the supernatant was removed. The hydroxyapatite fraction was washed twice with saline (1 mL). Radioactivity in the combined supernatants and the hydroxyapatite fraction was measured using a gamma counter. The proportion of the ^68Ga complex binding to hydroxyapatite was determined as percent of ^68Ga absorbed to hydroxyapatite.

Which results are given for `O=C([O-])CN(CCN(CC(=O)[O-])Cc1cc(CCC(=O)NC(P(=O)(O)O)P(=O)(O)O)ccc1[O-])Cc1cc(CCC(=O)NC2C(O)OC(CO)C(O)C2O)ccc1[O-].[68Ga+3]` (centres unmarked) [[^68Ga]1b]?
bone to blood ratio ([1]; 2 min): 0.9; bone to muscle ratio ([1]; 2 min): 4.7; Biodistribution: Blood ([1]; 2 min post injection): 9.22 ± 0.83 % dose/g; Biodistribution: Bone ([1]; 2 min post injection): 8.34 ± 0.88 % dose/g; Biodistribution: Brain ([1]; 2 min post injection): 0.20 ± 0.04 % dose/g; Biodistribution: Heart ([1]; 2 min post injection): 3.01 ± 0.23 % dose/g; Biodistribution: Kidney ([1]; 2 min post injection): 18.5 ± 2.45 % dose/g; Biodistribution: Liver ([1]; 2 min post injection): 2.58 ± 0.22 % dose/g; Biodistribution: Lung ([1]; 2 min post injection): 5.11 ± 0.28 % dose/g; Biodistribution: Muscle ([1]; 2 min post injection): 1.79 ± 0.28 % dose/g; Biodistribution: Pancreas ([1]; 2 min post injection): 1.51 ± 0.06 % dose/g; Biodistribution: Skin ([1]; 2 min post injection): 2.55 ± 0.58 % dose/g; Biodistribution: Spleen ([1]; 2 min post injection): 2.03 ± 0.13 % dose/g; bone to blood ratio ([1]; 30 min): 20; bone to muscle ratio ([1]; 30 min): 68; Biodistribution: Blood ([1]; 30 min (0.5 hr) post injection): 0.83 ± 0.04 % dose/g; Biodistribution: Bone ([1]; 30 min (0.5 hr) post injection): 16.6 ± 1.37 % dose/g; Biodistribution: Brain ([1]; 30 min (0.5 hr) post injection): 0.03 ± 0.01 % dose/g; Biodistribution: Heart ([1]; 30 min (0.5 hr) post injection): 0.62 ± 0.04 % dose/g; Biodistribution: Kidney ([1]; 30 min (0.5 hr) post injection): 3.21 ± 1.59 % dose/g; Biodistribution: Liver ([1]; 30 min (0.5 hr) post injection): 1.20 ± 0.10 % dose/g; Biodistribution: Lung ([1]; 30 min (0.5 hr) post injection): 1.31 ± 0.29 % dose/g; Biodistribution: Muscle ([1]; 30 min (0.5 hr) post injection): 0.24 ± 0.03 % dose/g; Biodistribution: Pancreas ([1]; 30 min (0.5 hr) post injection): 0.24 ± 0.02 % dose/g; Biodistribution: Skin ([1]; 30 min (0.5 hr) post injection): 0.60 ± 0.02 % dose/g; Biodistribution: Spleen ([1]; 30 min (0.5 hr) post injection): 0.75 ± 0.22 % dose/g; bone to blood ratio ([1]; 60 min): 50; bone to muscle ratio ([1]; 60 min): 147; Biodistribution: Blood ([1]; 60 min (1 hr) post injection): 0.39 ± 0.06 % dose/g; Biodistribution: Bone ([1]; 60 min (1 hr) post injection): 19.4 ± 2.05 % dose/g; Biodistribution: Brain ([1]; 60 min (1 hr) post injection): 0.02 ± 0.01 % dose/g; Biodistribution: Heart ([1]; 60 min (1 hr) post injection): 0.37 ± 0.02 % dose/g; Biodistribution: Kidney ([1]; 60 min (1 hr) post injection): 2.65 ± 0.44 % dose/g; Biodistribution: Liver ([1]; 60 min (1 hr) post injection): 1.15 ± 0.13 % dose/g; Biodistribution: Lung ([1]; 60 min (1 hr) post injection): 0.96 ± 0.05 % dose/g; Biodistribution: Muscle ([1]; 60 min (1 hr) post injection): 0.13 ± 0.01 % dose/g; Biodistribution: Pancreas ([1]; 60 min (1 hr) post injection): 0.11 ± 0.01 % dose/g; Biodistribution: Skin ([1]; 60 min (1 hr) post injection): 0.26 ± 0.04 % dose/g; Biodistribution: Spleen ([1]; 60 min (1 hr) post injection): 0.66 ± 0.15 % dose/g; bone to blood ratio ([1]; 120 min): 82; bone to muscle ratio ([1]; 120 min): 197; Biodistribution: Blood ([1]; 120 min post injection): 0.21 ± 0.06 % dose/g; Biodistribution: Bone ([1]; 120 min post injection): 17.1 ± 3.70 % dose/g; Biodistribution: Brain ([1]; 120 min post injection): 0.02 ± 0.01 % dose/g; Biodistribution: Heart ([1]; 120 min post injection): 0.28 ± 0.04 % dose/g; Biodistribution: Kidney ([1]; 120 min post injection): 2.71 ± 0.17 % dose/g; Biodistribution: Liver ([1]; 120 min post injection): 1.22 ± 0.07 % dose/g; Biodistribution: Lung ([1]; 120 min post injection): 0.86 ± 0.03 % dose/g; Biodistribution: Muscle ([1]; 120 min post injection): 0.09 ± 0.01 % dose/g; Biodistribution: Pancreas ([1]; 120 min post injection): 0.08 ± 0.01 % dose/g; Biodistribution: Skin ([1]; 120 min post injection): 0.18 ± 0.01 % dose/g; Biodistribution: Spleen ([1]; 120 min post injection): 0.53 ± 0.04 % dose/g; Hydroxyapatite Binding (%) [2]: 91.7 ± 5.6%
